The source of these data is PMC8323883, “PlzA is a bifunctional c-di-GMP biosensor that promotes tick and mammalian host-adaptation of Borrelia burgdorferi” (PLoS Pathogens, 2021).

The assay has as its target T1, PlzA (BB0733) (Borreliella burgdorferi, UniProt O51675).
T1 construct: gene BB_0733; PilZN3-PilZ domains
Briefly: SAXS with and without ligand (Kratky plots). Format: binding. Particulars: 33-135 µM PlzA, 270 µM c-di-GMP; 500 mM NaCl, 20 mM Na2HPO4, pH 7.4; ligand-induced conformational change.

T1 sequence (O51675 entry or part of it): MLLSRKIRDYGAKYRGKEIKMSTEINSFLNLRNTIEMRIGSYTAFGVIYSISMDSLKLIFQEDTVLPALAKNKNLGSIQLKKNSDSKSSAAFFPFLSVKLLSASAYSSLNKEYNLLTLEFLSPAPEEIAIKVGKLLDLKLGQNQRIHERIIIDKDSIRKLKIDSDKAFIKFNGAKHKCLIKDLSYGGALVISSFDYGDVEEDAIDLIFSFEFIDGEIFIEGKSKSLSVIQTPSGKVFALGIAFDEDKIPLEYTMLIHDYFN

As for `Nc1nc2c(ncn2[C@@H]2O[C@@H]3COP(=O)(O)O[C@H]4[C@@H](O)[C@H](n5cnc6c(=O)[nH]c(N)nc65)O[C@@H]4COP(=O)(O)O[C@H]3[C@H]2O)c(=O)[nH]1` [c-di-GMP, bis-(3′-5′)-cyclic dimeric guanosine monophosphate], the “SAXS with and without ligand (Kratky plots)” value was “confirming a major structural rearrangement upon binding of c-di-GMP”.
